Measurements as given in patent US20120015901A1, “METHODS AND PREPARATIONS FOR PROTECTING CRITICALLY ILL PATIENTS” (priority 2009, published 2012).

What was measured:
[1] = tested on: pre-aged wild type yeast cells; assay: Stress of pre-aged yeast by heat shock or hydrogen peroxide; type: cell-based; conditions: aged to day 24 with 4 mM spermidine; 4 h, 3 mM H2O2 or 42° C.
Method: Survival of pre-aged wild type cells stressed for 4 h with hydrogen peroxide (3 mM H2O2) or heat shock (42° C.) compared to unstressed cells. Cells were chronologically aged until day 24 with or without addition of 4 mM spermidine. Data represent means±SEM (n=4). *p<0.05 and ***p<0.001. B) Free thiol group concentration (indicative of oxidative stress level) in blood serum of aging mice with or without (control) supplementation of drinking water with 0.3 and 3 mM spermidine for 200 days. Data represent means±SEM (n=3). **p<0.01. (C) Intracellular spermidine of mouse liver cells, obtained from the same mice used for RSH measurements presented in (B). Data represent means±SEM (n=3).

[2] = tested on: histone acetyltransferase activity (HAT-activity); assay: HAT activity assay, yeast nuclear extract; type: biochemical; conditions: extracts of isolated yeast nuclei; spermidine 100 mM
Method: Yeast nuclei were isolated from 200 ml BY4741 wild type culture (grown for 24 h in SCD to stationary phase) as described previously (Buttner et al. (2007), Mol Cell 25, 233-246). Nuclear extract was prepared using nuclear extraction buffer from BioVision's Nuclear/Cytosol Fractionation Kit (Bio Vision, K266-25) without DTT addition, according to the manufacturer's protocol. Incubation time was doubled to 80 min with vortexing every 8 minutes. Protein concentration was determined via Bradford, giving yields of approximately 1 mg/ml protein. Yeast nuclear extract was immediately subjected to HAT activity assays.
For HAT-activity determination the commercially available HAT Activity Colorimetric Assay KIT from BioVision (Bio Vision K332-100) was employed. HAT assays were performed according to the manufacturer's protocol. […] Development of tetrazolium dye was measured by absorption at 440 nm using a GeniosPro plate reader (Tecan). Background readings were done with samples without NADH generating enzyme, giving the nuclear extracts unspecific background activity and eliminate any possible negative effects of spermidine addition on the assay itself. […] Calculated slopes of spermidine treated samples were compared to slopes of untreated samples which were set to a relative activity of 100%.

[3] = tested on: chronologically aged yeast cultures; assay: Oxygen consumption and fractionation of upper and lower (quiescent) cells; type: cell-based
Method: Oxygen consumption was directly determined in 1.7 ml of chronologically aged yeast cultures transferred to a recording chamber by measuring the decline of oxygen concentration under anaerobic conditions using an oxygen electrode. Slopes were calculated over 15 min within the linear decrease of oxygen (minute 2-17) and normalized to living cells as determined by plating on YEPD agar plates.
Cells were cultured in SCD media as described in section on “Yeast Strains and Molecular Biology”. Percoll density gradient centrifugation was performed according to Allen et al. (Allen et al. (2006) J Cell Biol 174, 89-100). Cell counts for each fraction were determined using a CASY cell counter (Innovatis).

Compound: NCCCCNCCCN [spermidine]
- resistance against stress inflicted by heat shock or H2O2 treatment [1]: strong resistance
- general HAT activity [2]: efficiently inhibited
- oxygen consumption ([3]; day 20, 4 mM spermidine): reduced their oxygen consumption
- quiescence status (upper and lower cell fractions) ([3]; gradient separation, 4 mM spermidine): resemble the status of quiescence
